Test results published in US20130023645A1 (priority 2006, published 2013).
Several values for one entry are separate records, joined by “and”; a condition that tells them apart may be missing. Equal entries are not always repeated.

Molecular target: T1, neuronal-type nicotinic receptors (Bos taurus, UniProt Q07263+Q8SPU6)
T1 construct: monolayer cultures of bovine adrenal chromaffin cells; endogenous in cells; host or cells: bovine adrenal chromaffin cells (primary monolayer cultures)
Format: cell-based, bovine

T1 sequence (Q07263 22-495): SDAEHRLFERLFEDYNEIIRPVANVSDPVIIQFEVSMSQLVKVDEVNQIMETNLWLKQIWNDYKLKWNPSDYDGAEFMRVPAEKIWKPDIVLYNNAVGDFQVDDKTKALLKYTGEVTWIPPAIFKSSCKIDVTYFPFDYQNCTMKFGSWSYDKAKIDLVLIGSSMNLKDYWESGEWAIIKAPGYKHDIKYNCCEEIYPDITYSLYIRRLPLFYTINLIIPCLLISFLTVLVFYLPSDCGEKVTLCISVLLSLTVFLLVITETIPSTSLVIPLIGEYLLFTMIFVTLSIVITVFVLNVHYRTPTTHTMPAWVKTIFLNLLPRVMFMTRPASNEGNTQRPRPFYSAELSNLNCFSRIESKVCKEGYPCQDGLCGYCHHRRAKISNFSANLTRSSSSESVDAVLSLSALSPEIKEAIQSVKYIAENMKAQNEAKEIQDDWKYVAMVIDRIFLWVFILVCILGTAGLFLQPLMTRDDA
T1 sequence (Q8SPU6 20-496): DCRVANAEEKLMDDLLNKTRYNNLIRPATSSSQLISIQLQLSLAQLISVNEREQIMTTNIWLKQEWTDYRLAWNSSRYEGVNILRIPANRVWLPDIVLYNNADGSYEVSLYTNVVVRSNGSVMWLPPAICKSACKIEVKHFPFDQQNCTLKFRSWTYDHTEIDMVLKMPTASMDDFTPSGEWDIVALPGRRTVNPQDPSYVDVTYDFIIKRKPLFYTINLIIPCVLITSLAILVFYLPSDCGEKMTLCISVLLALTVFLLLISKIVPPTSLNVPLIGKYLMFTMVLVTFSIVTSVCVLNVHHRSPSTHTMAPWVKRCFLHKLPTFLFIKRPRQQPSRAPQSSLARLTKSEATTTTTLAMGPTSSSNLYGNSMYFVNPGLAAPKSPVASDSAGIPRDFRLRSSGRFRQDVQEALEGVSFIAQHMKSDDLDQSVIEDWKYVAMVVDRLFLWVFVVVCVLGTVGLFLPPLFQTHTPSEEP

## CN1CCCC1c1cccnc1 (centres unmarked) [NICOTINE, nicotine, reference compound]
  Adrenaline Release, mean: 4.46%
  Adrenaline Release, single determinations (1st-4th): 4.31% and 4.52% and 4.48%
  Noradrenaline Release, mean: 6.85%
  Noradrenaline Release, single determinations (1st-4th): 6.62% and 6.89% and 6.99%
  noradrenaline released, basal release (0.72%) subtracted: 6.13%
